ChEMBL document CHEMBL1150859, “Gelliusterols A--D, new acetylenic sterols from a sponge, Gellius species” (J Nat Prod, 2001)
≈ marks a conversion by molar mass, not a printed value.

Columns and labels:
Assay type in all cases: functional, cell-based
[1] = tested on: HT-29; experiment: Cytotoxicity against human HT-29 cells
[2] = tested on: P388; experiment: Cytotoxicity against mouse P388 cells
[3] = tested on: A549; experiment: Cytotoxicity against human A549 cells
[4] = tested on: DU-145; experiment: Cytotoxicity against human DU145 cells
[5] = tested on: SK-MEL-28; experiment: Cytotoxicity against human SK-MEL-28 cells

| Compound | IC50 [1] [µg/mL] | IC50 [2] [µg/mL] | IC50 [3] [µg/mL] | IC50 [4] [µg/mL] | IC50 [5] [µg/mL] |
| --- | --- | --- | --- | --- | --- |
| CC#CC[C@@H](C)[C@H]1CC[C@H]2[C@@H]3[C@H](O)C=C4C[C@@H](O)CC[C@]4(C)[C@H]3CC[C@]12C [GELLIUSTEROL A] | > 1 | > 1 | > 1 | > 1 | > 1 |
| CC#CC[C@@H](C)[C@H]1CC[C@H]2[C@@H]3C(=O)C=C4C[C@@H](O)CC[C@]4(C)[C@H]3CC[C@]12C [GELLIUSTEROL B] | > 1 | > 1 | > 1 | > 1 | > 1 |
| CC(C)C#CC[C@@H](C)[C@H]1CC[C@H]2[C@@H]3C(=O)C=C4C[C@@H](O)CC[C@]4(C)[C@H]3CC[C@]12C [GELLIUSTEROL C] | 0.5 (≈ 1.26 µM) | > 1 | > 1 | > 1 | > 1 |
